Measured values: US20120010075A1 (priority 2009, published 2012)
Like-named read-outs stand apart in the source and are kept apart here.

Tested on: Phytophthora infestans
Assay type: in vivo, Phytophthora infestans on tomato (Outdoor Girl)
[1] = hydrazone 200 μM + CuCl2 200 μM
[2] = hydrazone 200 μM + CuCl2 400 μM

SMILES: O=C(N/N=C/c1cc(Cl)cc(Cl)c1O)c1ccccc1 [Example 16]
- % Control of Tomato Late Blight (hydrazone 10 μM + CuCl2 10 μM): 33.5%
- % Control of Tomato Late Blight, predicted (in brackets, Colby) (hydrazone 10 μM + CuCl2 10 μM): 3.1%
- % Control of Tomato Late Blight (hydrazone 10 μM + CuCl2 50 μM): 39.7%
- % Control of Tomato Late Blight, predicted (in brackets, Colby) (hydrazone 10 μM + CuCl2 50 μM): 9.9%
- % Control of Tomato Late Blight (hydrazone 10 μM + CuCl2 200 μM): 69.0%
- % Control of Tomato Late Blight, predicted (in brackets, Colby) (hydrazone 10 μM + CuCl2 200 μM): 39.2%
- % Control of Tomato Late Blight (hydrazone 10 μM + CuCl2 400 μM): 75.7%
- % Control of Tomato Late Blight, predicted (in brackets, Colby) (hydrazone 10 μM + CuCl2 400 μM): 56.6%
- % Control of Tomato Late Blight (hydrazone 10 μM + CuCl2 800 μM): 94.2%
- % Control of Tomato Late Blight, predicted (in brackets, Colby) (hydrazone 10 μM + CuCl2 800 μM): 70.7%
- % Control of Tomato Late Blight (hydrazone 10 μM + CuSO4 10 μM): 26.3%
- % Control of Tomato Late Blight, predicted (in brackets, Colby) (hydrazone 10 μM + CuSO4 10 μM): 3.1%
- % Control of Tomato Late Blight (hydrazone 10 μM + CuSO4 50 μM): 28.1%
- % Control of Tomato Late Blight, predicted (in brackets, Colby) (hydrazone 10 μM + CuSO4 50 μM): 6.2%
- % Control of Tomato Late Blight (hydrazone 10 μM + CuSO4 200 μM): 56.0%
- % Control of Tomato Late Blight, predicted (in brackets, Colby) (hydrazone 10 μM + CuSO4 200 μM): 50.4%
- % Control of Tomato Late Blight (hydrazone 10 μM + CuSO4 400 μM): 77.3%
- % Control of Tomato Late Blight, predicted (in brackets, Colby) (hydrazone 10 μM + CuSO4 400 μM): 76.4%
- % Control of Tomato Late Blight (hydrazone 10 μM + CuSO4 800 μM): 72.2%
- % Control of Tomato Late Blight, predicted (in brackets, Colby) (hydrazone 10 μM + CuSO4 800 μM): 83.1%
- % Control of Tomato Late Blight (hydrazone 10 μM alone, no copper): 1.5%
- % Control of Tomato Late Blight (hydrazone 50 μM + CuCl2 10 μM): 41.9%
- % Control of Tomato Late Blight, predicted (in brackets, Colby) (hydrazone 50 μM + CuCl2 10 μM): 12.8%
- % Control of Tomato Late Blight (hydrazone 50 μM + CuCl2 50 μM): 63.0%
- % Control of Tomato Late Blight, predicted (in brackets, Colby) (hydrazone 50 μM + CuCl2 50 μM): 18.8%
- % Control of Tomato Late Blight (hydrazone 50 μM + CuCl2 200 μM): 91.5%
- % Control of Tomato Late Blight, predicted (in brackets, Colby) (hydrazone 50 μM + CuCl2 200 μM): 45.2%
- % Control of Tomato Late Blight (hydrazone 50 μM + CuCl2 400 μM): 91.7%
- % Control of Tomato Late Blight, predicted (in brackets, Colby) (hydrazone 50 μM + CuCl2 400 μM): 60.9%
- % Control of Tomato Late Blight (hydrazone 50 μM + CuCl2 800 μM): 98.3%
- % Control of Tomato Late Blight, predicted (in brackets, Colby) (hydrazone 50 μM + CuCl2 800 μM): 73.6%
- % Control of Tomato Late Blight (hydrazone 50 μM + CuSO4 10 μM): 56.8%
- % Control of Tomato Late Blight, predicted (in brackets, Colby) (hydrazone 50 μM + CuSO4 10 μM): 12.8%
- % Control of Tomato Late Blight (hydrazone 50 μM + CuSO4 50 μM): 67.7%
- % Control of Tomato Late Blight, predicted (in brackets, Colby) (hydrazone 50 μM + CuSO4 50 μM): 15.5%
- % Control of Tomato Late Blight (hydrazone 50 μM + CuSO4 200 μM): 72.9%
- % Control of Tomato Late Blight, predicted (in brackets, Colby) (hydrazone 50 μM + CuSO4 200 μM): 55.4%
- % Control of Tomato Late Blight (hydrazone 50 μM + CuSO4 400 μM): 78.0%
- % Control of Tomato Late Blight, predicted (in brackets, Colby) (hydrazone 50 μM + CuSO4 400 μM): 78.8%
- % Control of Tomato Late Blight (hydrazone 50 μM + CuSO4 800 μM): 91.6%
- % Control of Tomato Late Blight, predicted (in brackets, Colby) (hydrazone 50 μM + CuSO4 800 μM): 84.8%
- % Control of Tomato Late Blight (hydrazone 50 μM alone, no copper): 11.3%
- % Control of Tomato Late Blight (hydrazone 200 μM + CuCl2 10 μM): 67.8%
- % Control of Tomato Late Blight, predicted (in brackets, Colby) (hydrazone 200 μM + CuCl2 10 μM): 22.7%
- % Control of Tomato Late Blight (hydrazone 200 μM + CuCl2 50 μM): 96.6%
- % Control of Tomato Late Blight, predicted (in brackets, Colby) (hydrazone 200 μM + CuCl2 50 μM): 28.1%
- % Control of Tomato Late Blight [1]: 95.8%
- % Control of Tomato Late Blight, predicted (in brackets, Colby) [1]: 51.5%
- % Control of Tomato Late Blight [2]: 90.8%
- % Control of Tomato Late Blight, predicted (in brackets, Colby) [2]: 65.4%
- % Control of Tomato Late Blight (hydrazone 200 μM + CuCl2 800 μM): 96.7%
